Key:
IGROV1 (Ovarian cancer) = experiment: NCI-60 screen (SRB, 48 h); details: Homo sapiens; for GI50: IGROV-1; for IC (TGI): IGROV-1, 48 h, read-out: TGI; for CC50: IGROV-1, read-out: LC50
RPMI-8226 (Leukemia) = experiment: NCI-60 screen (SRB, 48 h); details: Homo sapiens; for GI50: RPMI-8226; for IC (TGI): RPMI-8226, 48 h, read-out: TGI; for CC50: RPMI-8226, read-out: LC50
NSC lung cancer subpanel = experiment: NCI-60 screen, subpanel; details: Homo sapiens; for IC (TGI): 48 h, read-out: TGI MG_MID; for GI50: read-out: GI50 MG_MID; for CC50: read-out: LC50 MG_MID
SK-MEL-2 (Melanoma) = experiment: NCI-60 screen (SRB, 48 h); details: Homo sapiens; for GI50: SK-MEL-2; for IC (TGI): SK-MEL-2, 48 h, read-out: TGI; for CC50: SK-MEL-2, read-out: LC50
SK-OV-3 (Ovarian cancer) = experiment: NCI-60 screen (SRB, 48 h); details: Homo sapiens; for GI50: SK-OV-3; for IC (TGI): SK-OV-3, 48 h, read-out: TGI; for CC50: SK-OV-3, read-out: LC50
EKVX (NSC lung cancer) = experiment: NCI-60 screen (SRB, 48 h); details: Homo sapiens; for IC (TGI): 48 h, read-out: TGI; for CC50: read-out: LC50
K-562 (Leukemia) = experiment: NCI-60 screen (SRB, 48 h); details: Homo sapiens; for GI50: K562; for IC (TGI): K562, 48 h, read-out: TGI; for CC50: K562, read-out: LC50
T-47D (Breast cancer) = experiment: NCI-60 screen (SRB, 48 h); details: Homo sapiens, T47D; for IC (TGI): 48 h, read-out: TGI; for CC50: read-out: LC50
[1] = system: NCI-H522 (NSC lung cancer); experiment: NCI-60 screen (SRB, 48 h); details: Homo sapiens; for GI50: NCI-H522; for IC (TGI): NCI-H522, 48 h, read-out: TGI; for CC50: NCI-H522, read-out: LC50
786-0 (Renal cancer) = experiment: NCI-60 screen (SRB, 48 h); details: Homo sapiens; for GI50: 786-0; for IC (TGI): 786-0, 48 h, read-out: TGI; for CC50: 786-0, read-out: LC50
UACC-62 (Melanoma) = experiment: NCI-60 screen (SRB, 48 h); details: Homo sapiens; for GI50: UACC-62; for IC (TGI): UACC-62, 48 h, read-out: TGI; for CC50: UACC-62, read-out: LC50
PC-3 (Prostate cancer) = experiment: NCI-60 screen (SRB, 48 h); details: Homo sapiens; for GI50: PC-3; for IC (TGI): PC-3, 48 h, read-out: TGI; for CC50: PC-3, read-out: LC50
[2] = system: A2780 (ovarian carcinoma); experiment: SRB cytotoxicity assay, 72 h; type: cell-based, human; details: Homo sapiens; A2780, 72 h, cut-off 30 µM; read-out: EC50
In short: (§1)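 EC50 values reflect percent surviving cells versus untreated controls, read at 570 nm after SRB staining of TCA-fixed monolayers. Dosing spanned 0–30 µM over 72 h.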

[3] = system: A375 (malignant melanoma); experiment: SRB cytotoxicity assay, 72 h; type: cell-based, human; details: Homo sapiens, A-375, 72 h, A375, 72 h, cut-off 30 µM; read-out: EC50
In short: as §1

[4] = system: HT29 (colorectal carcinoma); experiment: SRB cytotoxicity assay, 72 h; type: cell-based, human; details: Homo sapiens, HT-29; HT29, 72 h, cut-off 30 µM; read-out: EC50
In short: as §1

[5] = system: FaDu (hypopharyngeal carcinoma); experiment: SRB cytotoxicity assay, 72 h; type: cell-based, human; details: Homo sapiens, cut-off 30 µM, read-out: EC50
In short: as §1

KM12 (Colon cancer) = experiment: NCI-60 screen (SRB, 48 h); details: Homo sapiens; for GI50: KM12; for IC (TGI): KM12, 48 h, read-out: TGI; for CC50: KM12, read-out: LC50
Renal Cancer subpanel = experiment: NCI-60 screen, subpanel; details: Homo sapiens; for IC (TGI): 48 h, read-out: TGI MG_MID; for GI50: read-out: GI50 MG_MID; for CC50: read-out: LC50 MG_MID
CAKI-1 (Renal cancer) = experiment: NCI-60 screen (SRB, 48 h); details: for GI50 / IC (TGI) / CC50: Homo sapiens; for GI50: CAKI-1; for IC (TGI): CAKI-1, 48 h, read-out: TGI; for CC50: CAKI-1, read-out: LC50
RXF 393 (Renal cancer) = experiment: NCI-60 screen (SRB, 48 h); details: Homo sapiens; for GI50: RXF 393; for IC (TGI): RXF 393, 48 h, read-out: TGI; for CC50: RXF 393, read-out: LC50
Prostate cancer subpanel = experiment: NCI-60 screen, subpanel; details: Homo sapiens; for IC (TGI): 48 h, read-out: TGI MG_MID; for GI50: read-out: GI50 MG_MID; for CC50: read-out: LC50 MG_MID
UO-31 (Renal cancer) = experiment: NCI-60 screen (SRB, 48 h); details: for GI50 / IC (TGI) / CC50: Homo sapiens; for GI50: UO-31; for IC (TGI): UO-31, 48 h, read-out: TGI; for CC50: UO-31, read-out: LC50
[6] = system: A549/ATCC (NSC lung cancer); experiment: NCI-60 screen (SRB, 48 h); details: Homo sapiens; for GI50: A549; for IC (TGI): A549, 48 h, read-out: TGI; for CC50: A549, read-out: LC50
CCRF-CEM (Leukemia) = experiment: NCI-60 screen (SRB, 48 h); details: Homo sapiens; for IC (TGI): 48 h, read-out: TGI; for CC50: read-out: LC50

## C[C@H]1[C@H](C)CC[C@]2(CO)CC[C@]3(C)C(=CC[C@@H]4[C@@]5(C)CCCNC(C)(C)[C@@H]5CC[C@]43C)[C@H]12 [Compound 4, azepanouvaol]
IGROV1 (Ovarian cancer)
  GI50: 1.85 µM
  IC (TGI): 3.72 µM
  CC50: 7.45 µM
RPMI-8226 (Leukemia)
  GI50: 1.85 µM
  IC (TGI): 4.15 µM
  CC50: 9.27 µM
NSC lung cancer subpanel
  IC (TGI): 3.4 µM
  GI50: 1.74 µM
  CC50: 6.37 µM
SK-MEL-2 (Melanoma)
  GI50: 1.9 µM
  IC (TGI): 3.63 µM
  CC50: 6.91 µM
SK-OV-3 (Ovarian cancer)
  GI50: 2.54 µM
  IC (TGI): 3.97 µM
  CC50: 35.2 µM
EKVX (NSC lung cancer)
  GI50: 1.66 µM
  IC (TGI): 3.29 µM
  CC50: 6.53 µM
K-562 (Leukemia)
  GI50: 0.47 µM
  IC (TGI): 2.02 µM
  CC50: 6.68 µM
T-47D (Breast cancer)
  GI50: 1.68 µM
  IC (TGI): 4.03 µM
  CC50: 9.66 µM
[1]
  GI50: 1.71 µM
  IC (TGI): 3.32 µM
  CC50: 6.43 µM
786-0 (Renal cancer)
  GI50: 1.6 µM
  IC (TGI): 3.06 µM
  CC50: 5.85 µM
UACC-62 (Melanoma)
  GI50: 1.85 µM
  IC (TGI): 3.35 µM
  CC50: 6.06 µM
PC-3 (Prostate cancer)
  GI50: 1.55 µM
  IC (TGI): 2.97 µM
  CC50: 5.66 µM
[2]
  EC50: 2.63 ± 0.1 µM
[3]
  EC50: 2.4 ± 0.2 µM
[4]
  EC50: 1.71 ± 0.3 µM
[5]
  EC50: 1.69 ± 0.4 µM
KM12 (Colon cancer)
  GI50: 1.84 µM
  IC (TGI): 3.51 µM
  CC50: 6.68 µM
Renal Cancer subpanel
  IC (TGI): 3.2 µM
  GI50: 1.47 µM
  CC50: 6.11 µM
CAKI-1 (Renal cancer)
  GI50: 1.62 µM
  IC (TGI): 3.23 µM
  CC50: 6.43 µM
RXF 393 (Renal cancer)
  GI50: 1.81 µM
  IC (TGI): 3.51 µM
  CC50: 6.79 µM
Prostate cancer subpanel
  IC (TGI): 3.06 µM
  GI50: 1.64 µM
  CC50: 5.7 µM
UO-31 (Renal cancer)
  GI50: 1.54 µM
  IC (TGI): 2.99 µM
  CC50: 5.79 µM
[6]
  GI50: 1.74 µM
  IC (TGI): 3.28 µM
  CC50: 6.16 µM
CCRF-CEM (Leukemia)
  GI50: 1.74 µM
  IC (TGI): 3.93 µM
  CC50: 8.88 µM

## CC1(C)NCCC[C@]2(C)[C@H]3C=CC4=C5C[C@@](C)(CO)CC[C@]5(C)CC[C@@]4(C)[C@]3(C)CC[C@@H]12 [Compound 6, azepano-glycyrrhetol-diene]
IGROV1 (Ovarian cancer)
  GI50: 4.08 µM
  IC (TGI): 14.8 µM
  CC50: 46.6 µM
RPMI-8226 (Leukemia)
  GI50: 3.91 µM
  IC (TGI): 14.9 µM
  CC50: 52.9 µM
NSC lung cancer subpanel
  IC (TGI): 11.2 µM
  GI50: 3.17 µM
  CC50: 39.1 µM
SK-MEL-2 (Melanoma)
  GI50: 3.31 µM
  IC (TGI): 12.2 µM
  CC50: 38.9 µM
SK-OV-3 (Ovarian cancer)
  GI50: 14.5 µM
  IC (TGI): 28.6 µM
  CC50: 56.2 µM
EKVX (NSC lung cancer)
  GI50: 2.77 µM
  IC (TGI): 8.27 µM
  CC50: 38.4 µM
K-562 (Leukemia)
  GI50: 3.18 µM
  IC (TGI): 10.8 µM
  CC50: 43.8 µM
T-47D (Breast cancer)
  GI50: 5.38 µM
  IC (TGI): 20.9 µM
  CC50: 59.5 µM
[1]
  GI50: 2.38 µM
  IC (TGI): 7.31 µM
  CC50: 31.7 µM
786-0 (Renal cancer)
  GI50: 2.66 µM
  IC (TGI): 8.59 µM
  CC50: 40.9 µM
UACC-62 (Melanoma)
  GI50: 3.13 µM
  IC (TGI): 10.9 µM
  CC50: 37 µM
PC-3 (Prostate cancer)
  GI50: 3.05 µM
  IC (TGI): 12.3 µM
  CC50: 38.7 µM
[2]
  EC50: 3.93 ± 0.5 µM
[3]
  EC50: 6.65 ± 0.3 µM
[4]
  EC50: 4.84 ± 0.5 µM
[5]
  EC50: 4.44 ± 0.6 µM
KM12 (Colon cancer)
  GI50: 6.09 µM
  IC (TGI): 20.3 µM
  CC50: 55.1 µM
Renal Cancer subpanel
  IC (TGI): 11.9 µM
  GI50: 4.01 µM
  CC50: 35.8 µM
CAKI-1 (Renal cancer); CAKI-1, 1 dose 10 µM
  Growth % of the Most Sensitive Cell Lines: −96.49%
CAKI-1 (Renal cancer)
  GI50: 3.7 µM
  IC (TGI): 13.8 µM
  CC50: 39.3 µM
RXF 393 (Renal cancer)
  GI50: 1.84 µM
  IC (TGI): 4.15 µM
  CC50: 9.35 µM
Prostate cancer subpanel
  IC (TGI): 8.66 µM
  GI50: 2.65 µM
  CC50: 26.2 µM
UO-31 (Renal cancer)
  GI50: 3.59 µM
  IC (TGI): 15.7 µM
  CC50: 42.1 µM
UO-31 (Renal cancer); UO-31, 1 dose 10 µM
  Growth % of the Most Sensitive Cell Lines: −98.13%
[6]
  GI50: 1.89 µM
  IC (TGI): 3.71 µM
  CC50: 7.31 µM
CCRF-CEM (Leukemia)
  GI50: 3.52 µM
  IC (TGI): 14.5 µM
  CC50: 65.3 µM

Source: PMC7914897, “Cytotoxic Potential of a-Azepano- and 3-Amino-3,4-SeCo-Triterpenoids” (International Journal of Molecular Sciences, 2021)
